Tests used:
Format in all cases: biochemical
B-Raf V600E = molecular target: T1, B-Raf V600E (Homo sapiens, UniProt P15056, V600E); assay: AlphaScreen kinase assay, B-Raf V600E; details: read-out: IC50, activity toward kinase B-Raf V600E
T1 construct: P4254. pFastBacBD-CDC37 BRAF D437-K722-X, V600E; His6 with pFastBac HT leader (TEV site) (N); made in house; host or cells: Sf9 (baculovirus; chaperone CDC37 co-expressed)

Fms = molecular target: T2, Fms (Homo sapiens, UniProt P07333); assay: AlphaScreen kinase assay, Fms; details: read-out: IC50, activity toward kinase Fms
T2 construct: purchased Upstate Biotechnology

B-Raf = molecular target: T3, B-Raf (Homo sapiens, UniProt P15056); assay: AlphaScreen kinase assay, B-Raf; details: read-out: IC50, activity toward kinase B-Raf
T3 construct: purchased Upstate Biotechnology

FGFR1 = molecular target: T4, FGFR1 (Homo sapiens, UniProt P11362, C488A/C584S); assay: AlphaScreen kinase assay, FGFR1; details: read-out: IC50, activity toward kinase FGFR
T4 construct: P1351.pET N6 BI-PTP FGFR A458-E765-X C488A, C584S; made in house; host or cells: E. coli (PTP1B co-expressed)

Kit = molecular target: T5, Kit (Homo sapiens, UniProt P10721); assay: AlphaScreen kinase assay, Kit; details: read-out: IC50, activity toward kinase Kit
T5 construct: P1332.N6 BI PTP KIT M552-K948-X COD; His6 (N); made in house; host or cells: E. coli (PTP1B co-expressed)

c-Raf-1 = molecular target: T6, c-Raf-1 (Homo sapiens, UniProt P04049); assay: AlphaScreen kinase assay, c-Raf-1; details: read-out: IC50, activity toward kinase c-Raf-1
T6 construct: purchased Upstate Biotechnology

Ret = molecular target: T7, Ret (Homo sapiens, UniProt P07949); assay: AlphaScreen kinase assay, Ret; details: read-out: IC50, activity toward kinase Ret
T7 construct: P1378.pET-SF BI-PTP RET H661-R1012 HIS; made in house
T7 sequence (P07949 with tags, fused parts or gaps): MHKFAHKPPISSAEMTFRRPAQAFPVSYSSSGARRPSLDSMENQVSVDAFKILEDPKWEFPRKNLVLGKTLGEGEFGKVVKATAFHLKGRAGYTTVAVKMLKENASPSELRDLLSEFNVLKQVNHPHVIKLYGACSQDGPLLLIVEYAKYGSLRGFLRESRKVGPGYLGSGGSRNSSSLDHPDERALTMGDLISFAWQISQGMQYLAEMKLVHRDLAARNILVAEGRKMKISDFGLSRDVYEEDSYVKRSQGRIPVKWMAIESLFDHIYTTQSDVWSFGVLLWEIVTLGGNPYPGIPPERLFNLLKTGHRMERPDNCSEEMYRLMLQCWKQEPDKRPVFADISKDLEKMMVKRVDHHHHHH

Flt1 = molecular target: T8, Flt1 (Homo sapiens, UniProt P17948); assay: AlphaScreen kinase assay, Flt1; details: read-out: IC50, activity toward kinase Flt1
T8 construct: P1826.pETN6 BI-PTP FLT1 M799-D1165-X WT; His6 (N); made in house; host or cells: E. coli (PTP1B co-expressed)
T8 sequence (P17948 with tags, fused parts or gaps): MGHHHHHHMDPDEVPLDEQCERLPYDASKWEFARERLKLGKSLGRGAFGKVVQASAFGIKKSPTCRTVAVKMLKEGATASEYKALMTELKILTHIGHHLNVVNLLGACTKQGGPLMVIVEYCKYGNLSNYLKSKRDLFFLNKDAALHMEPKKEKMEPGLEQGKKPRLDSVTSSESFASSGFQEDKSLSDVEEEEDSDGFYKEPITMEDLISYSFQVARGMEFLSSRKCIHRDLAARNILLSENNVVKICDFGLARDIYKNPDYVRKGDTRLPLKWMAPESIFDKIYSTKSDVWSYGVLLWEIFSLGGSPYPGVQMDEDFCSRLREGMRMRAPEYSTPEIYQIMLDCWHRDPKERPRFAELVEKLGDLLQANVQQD

Measured: IC50

T5 sequence (P10721 with tags, fused parts or gaps): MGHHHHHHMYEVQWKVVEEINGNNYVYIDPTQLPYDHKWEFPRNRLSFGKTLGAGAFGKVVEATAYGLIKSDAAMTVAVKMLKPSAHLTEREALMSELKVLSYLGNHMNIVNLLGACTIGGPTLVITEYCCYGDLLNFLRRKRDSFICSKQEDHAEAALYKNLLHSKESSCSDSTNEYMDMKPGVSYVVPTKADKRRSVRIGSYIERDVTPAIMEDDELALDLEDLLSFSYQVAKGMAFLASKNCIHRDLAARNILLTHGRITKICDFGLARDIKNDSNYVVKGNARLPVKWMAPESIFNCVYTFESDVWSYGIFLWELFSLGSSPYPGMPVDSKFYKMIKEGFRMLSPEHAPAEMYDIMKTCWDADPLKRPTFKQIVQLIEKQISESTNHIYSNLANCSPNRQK
T4 sequence (P11362 458-765 C488A/C584S): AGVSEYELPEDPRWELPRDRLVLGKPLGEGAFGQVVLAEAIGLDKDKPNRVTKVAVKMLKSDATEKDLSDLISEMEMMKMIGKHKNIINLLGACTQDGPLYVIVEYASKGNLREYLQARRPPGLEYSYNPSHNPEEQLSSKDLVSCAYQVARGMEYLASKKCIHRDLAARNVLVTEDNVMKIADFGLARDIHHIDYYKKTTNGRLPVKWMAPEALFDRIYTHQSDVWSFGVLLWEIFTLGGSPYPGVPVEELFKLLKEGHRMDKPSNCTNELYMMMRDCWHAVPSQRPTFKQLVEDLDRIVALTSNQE
T3 sequence (P15056 whole entry): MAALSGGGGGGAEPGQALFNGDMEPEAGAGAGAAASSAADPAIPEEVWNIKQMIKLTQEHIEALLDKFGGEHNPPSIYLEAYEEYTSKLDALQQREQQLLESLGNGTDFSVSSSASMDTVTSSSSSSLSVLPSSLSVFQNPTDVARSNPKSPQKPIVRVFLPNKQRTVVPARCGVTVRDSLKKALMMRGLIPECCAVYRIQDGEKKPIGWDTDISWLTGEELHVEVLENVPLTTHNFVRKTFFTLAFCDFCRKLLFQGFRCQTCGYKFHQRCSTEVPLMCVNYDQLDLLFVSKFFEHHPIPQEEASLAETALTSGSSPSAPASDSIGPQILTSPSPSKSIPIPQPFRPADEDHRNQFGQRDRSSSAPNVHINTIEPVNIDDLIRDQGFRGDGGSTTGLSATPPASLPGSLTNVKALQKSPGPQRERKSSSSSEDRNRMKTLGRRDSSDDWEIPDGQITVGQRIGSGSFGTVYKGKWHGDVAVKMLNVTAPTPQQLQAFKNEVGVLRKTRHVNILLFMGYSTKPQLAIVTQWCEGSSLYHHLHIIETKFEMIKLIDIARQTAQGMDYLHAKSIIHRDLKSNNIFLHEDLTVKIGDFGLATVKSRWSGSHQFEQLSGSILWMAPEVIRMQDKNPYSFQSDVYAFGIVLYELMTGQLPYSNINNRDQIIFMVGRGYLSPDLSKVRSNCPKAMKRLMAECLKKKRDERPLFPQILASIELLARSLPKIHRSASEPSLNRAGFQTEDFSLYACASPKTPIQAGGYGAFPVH
T6 sequence (P04049 whole entry): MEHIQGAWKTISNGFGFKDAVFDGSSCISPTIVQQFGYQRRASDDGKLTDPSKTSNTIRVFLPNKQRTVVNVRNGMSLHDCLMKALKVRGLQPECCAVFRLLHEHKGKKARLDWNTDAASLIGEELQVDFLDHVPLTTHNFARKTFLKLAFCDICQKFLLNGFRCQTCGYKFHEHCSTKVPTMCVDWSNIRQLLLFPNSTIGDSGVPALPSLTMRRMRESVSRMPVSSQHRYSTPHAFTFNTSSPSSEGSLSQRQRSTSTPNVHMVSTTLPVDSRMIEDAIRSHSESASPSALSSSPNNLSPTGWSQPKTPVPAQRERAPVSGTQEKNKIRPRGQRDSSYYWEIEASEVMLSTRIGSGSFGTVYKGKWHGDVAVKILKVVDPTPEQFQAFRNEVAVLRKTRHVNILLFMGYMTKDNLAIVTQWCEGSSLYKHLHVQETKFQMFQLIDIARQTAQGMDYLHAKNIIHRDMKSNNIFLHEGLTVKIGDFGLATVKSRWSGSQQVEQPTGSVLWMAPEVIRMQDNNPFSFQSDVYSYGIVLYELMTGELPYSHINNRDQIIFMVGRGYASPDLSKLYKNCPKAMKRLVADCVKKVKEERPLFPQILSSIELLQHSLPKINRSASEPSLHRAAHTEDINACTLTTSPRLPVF
T1 sequence (P15056 with tags, fused parts or gaps V600E): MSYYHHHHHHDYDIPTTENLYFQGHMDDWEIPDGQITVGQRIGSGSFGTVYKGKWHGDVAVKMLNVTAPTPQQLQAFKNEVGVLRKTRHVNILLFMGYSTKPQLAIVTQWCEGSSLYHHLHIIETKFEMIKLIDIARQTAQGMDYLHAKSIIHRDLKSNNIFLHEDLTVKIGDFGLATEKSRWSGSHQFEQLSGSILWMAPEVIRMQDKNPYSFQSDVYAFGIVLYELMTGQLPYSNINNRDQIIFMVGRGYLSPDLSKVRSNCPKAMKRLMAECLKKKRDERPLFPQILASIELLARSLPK
T2 sequence (P07333 20-972): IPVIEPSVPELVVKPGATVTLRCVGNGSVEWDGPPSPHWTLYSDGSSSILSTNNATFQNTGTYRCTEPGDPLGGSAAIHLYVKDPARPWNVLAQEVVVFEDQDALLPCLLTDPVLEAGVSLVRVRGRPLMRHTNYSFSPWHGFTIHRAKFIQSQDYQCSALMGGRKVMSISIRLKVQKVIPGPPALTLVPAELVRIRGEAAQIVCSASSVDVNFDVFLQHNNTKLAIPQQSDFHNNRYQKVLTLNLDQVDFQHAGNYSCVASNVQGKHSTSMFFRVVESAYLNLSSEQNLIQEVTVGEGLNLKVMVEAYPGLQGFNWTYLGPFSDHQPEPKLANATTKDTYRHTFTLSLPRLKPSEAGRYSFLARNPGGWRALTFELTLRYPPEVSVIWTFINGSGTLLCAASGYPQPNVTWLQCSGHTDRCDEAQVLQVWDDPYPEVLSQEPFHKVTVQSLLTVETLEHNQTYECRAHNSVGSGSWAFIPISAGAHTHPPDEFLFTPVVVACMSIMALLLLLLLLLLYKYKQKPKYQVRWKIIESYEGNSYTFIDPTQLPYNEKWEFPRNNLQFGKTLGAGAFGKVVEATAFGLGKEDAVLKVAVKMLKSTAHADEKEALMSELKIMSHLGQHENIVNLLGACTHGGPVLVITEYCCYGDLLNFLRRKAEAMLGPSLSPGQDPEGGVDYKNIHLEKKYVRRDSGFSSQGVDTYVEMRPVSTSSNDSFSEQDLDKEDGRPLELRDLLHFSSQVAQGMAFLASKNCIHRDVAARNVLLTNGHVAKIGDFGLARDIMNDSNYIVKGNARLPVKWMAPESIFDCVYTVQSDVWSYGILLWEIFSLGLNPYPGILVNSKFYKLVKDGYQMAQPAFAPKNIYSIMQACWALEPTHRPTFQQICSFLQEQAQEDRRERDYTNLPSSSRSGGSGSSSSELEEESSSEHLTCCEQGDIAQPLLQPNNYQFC

COc1cc(Cc2c[nH]c3ncc(-c4ccsc4)cc23)cc(OC)c1 [Compound P-0613]
not listed: Ret | Flt1
≤ 10 µM: all other assays above

O=C(c1c(F)ccc(NS(=O)(=O)c2ccccc2)c1F)c1c[nH]c2ncc(Br)cc12 [Compound P-0798, N-[3-(5-Bromo-1H-pyrrolo[2,3-b]pyridine-3-carbonyl)-2,4-difluoro-phenyl]-benzenesulfonamide]
not listed: Ret | Flt1
≤ 10 µM: all other assays above

CS(=O)(=O)Nc1ccc(Cl)c(C(=O)c2c[nH]c3ncc(-c4cccc(S(C)(=O)=O)c4)cc23)c1F [Compound P-0841, N-{4-Chloro-2-fluoro-3-[5-(3-methanesulfonyl-phenyl)-1H-pyrrolo[2,3-b]pyridine-3-carbonyl]-phenyl}-methanesulfonamide]
≤ 10 µM: B-Raf V600E | Ret | B-Raf | FGFR1 | c-Raf-1

CS(=O)(=O)Nc1ccc(Cl)c(C(=O)c2c[nH]c3ncc(Br)cc23)c1F [Compound P-0868, N-[3-(5-Bromo-1H-pyrrolo[2,3-b]pyridine-3-carbonyl)-4-chloro-2-fluoro-phenyl]-methanesulfonamide]
≤ 10 µM: B-Raf V600E | B-Raf | FGFR1 | Flt1 | c-Raf-1

COC(c1ccc(NCc2ccc(Cl)cc2)nc1)c1c[nH]c2ncc(-c3cccnc3)cc12 (stereo not drawn) [Compound P-0939]
≤ 10 µM: B-Raf V600E | Ret | B-Raf | c-Raf-1

COC(c1ccc(NCc2ccc(Cl)cc2)nc1)c1c[nH]c2ncc(-c3cccc(S(C)(=O)=O)c3)cc12 (stereo not drawn) [Compound P-0998]
≤ 10 µM: B-Raf V600E | Ret | B-Raf | c-Raf-1

CCCS(=O)(=O)Nc1ccc(F)c(C(=O)c2c[nH]c3ncc(N4CCN(C)CC4)cc23)c1F [Compound P-1246, propane-1-sulfonic acid {2,4-difluoro-3-[5-(4-methyl-piperazin-1-yl)-1H-pyrrolo[2,3-b]pyridine-3-carbonyl]-phenyl}-amide]
not listed: Ret
≤ 10 µM: all other assays above

COc1ccc(F)c(C(=O)c2c[nH]c3ncc(Br)cc23)c1F [Compound P-1386, (5-Bromo-1H-pyrrolo[2,3-b]pyridin-3-yl)-(2,6-difluoro-3-methoxy-phenyl)-methanone]
not listed: Ret | Flt1
≤ 10 µM: all other assays above

CC(=O)Nc1cccc(-c2cnc3[nH]cc(C(=O)c4cccc(C(F)(F)F)c4)c3c2)c1 [Compound P-1419, N-{3-[3-(3-Trifluoromethyl-benzoyl)-1H-pyrrolo[2,3-b]pyridin-5-yl]-phenyl}-acetamide]
not listed: Ret | Flt1
≤ 10 µM: all other assays above

O=C(c1c(F)ccc(NS(=O)(=O)c2ccc(C(F)(F)F)cc2)c1F)c1c[nH]c2ncc(Cl)cc12 [Compound P-1541, N-[3-(5-Chloro-1H-pyrrolo[2,3-b]pyridine-3-carbonyl)-2,4-difluoro-phenyl]-4-trifluoromethyl-benzenesulfonamide]
not listed: FGFR1 | Ret
≤ 10 µM: all other assays above

O=C(Nc1ccccc1)Nc1cccc(C(=O)c2c[nH]c3ncc(Cl)cc23)c1 [Compound P-1733, 1-[3-(5-Chloro-1H-pyrrolo[2,3-b]pyridine-3-carbonyl)-phenyl]-3-phenyl-urea]
≤ 10 µM: B-Raf V600E | Fms | B-Raf | Kit | c-Raf-1

O=C(Nc1cccc(C(=O)c2c[nH]c3ncc(Cl)cc23)c1)Nc1ccc(C(F)(F)F)cc1Cl [Compound P-1739, 1-[3-(5-Chloro-1H-pyrrolo[2,3-b]pyridine-3-carbonyl)-phenyl]-3-(2-chloro-4-trifluoromethyl-phenyl)-urea]
≤ 10 µM: B-Raf V600E | Fms | B-Raf | Kit | c-Raf-1

O=C(Nc1cccc(C(=O)c2c[nH]c3ncc(Cl)cc23)c1)Nc1cccc(C(F)(F)F)c1F [Compound P-1740, 1-[3-(5-Chloro-1H-pyrrolo[2 3-b]pyridine-3-carbonyl)-phenyl]-3-(2-fluoro-3-trifluoromethyl-phenyl)-urea]
≤ 10 µM: B-Raf V600E | Fms | B-Raf | Kit | c-Raf-1

CCc1cnc2[nH]cc(C(=O)c3c(F)ccc(NS(=O)(=O)c4ccc(C(F)(F)F)cc4)c3F)c2c1 [Compound P-1783, N-[3-(5-Ethyl-1H-pyrrolo[2,3-b]pyridine-3-carbonyl)-2,4-difluoro-phenyl]-4-trifluoromethyl-benzenesulfonamide]
≤ 10 µM: B-Raf V600E | Fms | B-Raf | Kit | c-Raf-1

COCCOc1cnc2[nH]cc(C(=O)c3c(F)ccc(NS(=O)(=O)c4cccc(F)c4)c3F)c2c1 [Compound P-1871, N-{2,4-Difluoro-3-[5-(2-methoxy-ethoxy)-1H-pyrrolo[2,3-b]pyridine-3-carbonyl]-phenyl}-3-fluoro-benzenesulfonamide]
≤ 10 µM: B-Raf V600E | Fms | B-Raf | Kit | c-Raf-1

CCCS(=O)(=O)Nc1ccc(F)c(C(=O)c2c[nH]c3ncc(-c4ccc(N5CCOCC5)nc4)cc23)c1F [Compound P-1881, Propane-1-sulfonic acid {2,4-difluoro-3-[5-(6-morpholin-4-yl-pyridin-3-yl)-1H-pyrrolo[2,3-b]pyridine-3-carbonyl]-phenyl}-amide]
≤ 10 µM: B-Raf V600E | Fms | B-Raf | Kit | c-Raf-1

CCCS(=O)(=O)Nc1ccc(F)c(C(=O)c2c[nH]c3ncc(-c4ccc(N5CCN(C)CC5)nc4)cc23)c1F [Compound P-1882, Propane-1-sulfonic acid (2,4-difluoro-3-{5-[6-(4-methyl-piperazine-1-yl)-pyridin-3-yl]-1H-pyrrolo[2,3-b]pyridine-3-carbonyl}-phenyl)-amide]
≤ 10 µM: B-Raf V600E | Fms | B-Raf | Kit | c-Raf-1

From patent publication US8415469B2, “Compounds and methods for kinase modulation, and indications therefor” (Plexxikon Inc., priority 2005, dated 2013)
